ChEMBL document CHEMBL1201862, “PubChem BioAssay data set” (2004)
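In this assay, cells in 96-well plates receive the compound at five concentrations for 48 hours. Endpoints are linearly interpolated between the surrounding concentrations. At the GI50, growth is halved.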 Active and inactive are the calls of the source. Rule as the data show it: active = GI50 up to about 1.1 µM and inactive = higher.

Legend:
Test in all cases: NCI anticancer screen, dose series, 48 h
[1] = system: 786-0
[2] = system: A498
[3] = system: BT-549
[4] = system: DU-145
[5] = system: HCC 2998
[6] = system: HCT-15
[7] = system: HL-60
[8] = system: HOP-62
[9] = system: HT-29
[10] = system: MDA-MB-231
[11] = system: MDA-MB-435
[12] = system: MDA-N
[13] = system: NCI-H23
[14] = system: NCI-H522
[15] = system: OVCAR-3
[16] = system: OVCAR-5
[17] = system: OVCAR-8
[18] = system: SK-MEL-2
[19] = system: U-251
[20] = system: UACC-62

Measured: GI50

CSc1ccc2c(c1)C(N1CCN(C)CC1)Cc1ccccc1S2 (stereo not given)
4.15 µM: [6]
inactive: [1] 4.47 µM | [2] 9.79 µM | [3] 4.33 µM | [4] 10.7 µM | [5] 11.1 µM | [7] 2.69 µM | [8] 8.07 µM | [9] 2.33 µM | [10] 3.47 µM | [11] 2.32 µM | [12] 3.07 µM | [13] 13.9 µM | [14] 2.99 µM | [15] 8.91 µM | [16] 2.67 µM | [17] 6.84 µM | [18] 2.72 µM | [19] 4.43 µM | [20] 2.05 µM

N#C/C(=C\N1CCNC1=S)C(=O)c1ccc2ccccc2c1
> 100 µM: [6]
inactive: [1] > 100 µM | [2] > 100 µM | [3] > 100 µM | [4] > 100 µM | [5] > 100 µM | [7] 7.06 µM | [8] > 100 µM | [9] > 100 µM | [10] > 100 µM | [11] 89.1 µM | [12] > 100 µM | [13] > 100 µM | [14] > 100 µM | [15] > 100 µM | [16] > 100 µM | [17] > 100 µM | [18] > 100 µM | [19] > 100 µM | [20] > 100 µM

Nc1nc(Cl)cc(Oc2ccc(Cl)cc2)n1
> 57.4 µM: [6]
inactive: [1] > 59 µM | [2] > 47.5 µM | [3] 28.2 µM | [4] > 56.2 µM | [5] > 55.2 µM | [7] > 68.9 µM | [8] > 100 µM | [9] > 100 µM | [10] > 56.1 µM | [11] > 57.3 µM | [12] > 61 µM | [13] 29.5 µM | [14] 22.6 µM | [15] > 56.4 µM | [16] > 56.1 µM | [17] > 73.6 µM | [18] > 100 µM | [19] > 56.2 µM | [20] 29.9 µM

COc1ccccc1/C=C/C1=NN(c2cccc(S(=O)(=O)O)c2)C2(C1)C(Cl)C(=O)N2c1nc2ccccc2s1 (stereo not given)
inactive: [1] 37.8 µM | [2] > 81.3 µM | [3] 49.2 µM | [4] 67 µM | [5] > 91 µM | [7] 22.1 µM | [8] > 100 µM | [9] 82.4 µM | [10] > 94.6 µM | [11] 54.6 µM | [12] 85.3 µM | [13] 31.9 µM | [14] 9.04 µM | [15] 31.5 µM | [16] > 100 µM | [17] > 51.4 µM | [18] > 100 µM | [19] 52.7 µM | [20] 48.8 µM
57.4 µM: [6]

CCCCCNC1=CC(=O)c2ccccc2C1=O
52.2 µM: [6]
inactive: [1] 18.4 µM | [2] 32.1 µM | [3] 19.5 µM | [4] 53.3 µM | [5] > 78.2 µM | [7] 18.5 µM | [8] 23.9 µM | [9] 69.2 µM | [10] 19.4 µM | [11] > 100 µM | [12] > 100 µM | [13] 24.3 µM | [14] 19.7 µM | [15] 22.5 µM | [16] > 100 µM | [17] 23 µM | [18] 21.6 µM | [19] 17.5 µM | [20] 33.7 µM

C[C@H](c1ccccc1)n1c(N)c(-c2nc3ccccc3s2)c2ccc([N+](=O)[O-])cc2c1=O
4.76 µM: [6]
active: [7] 0.327 µM
inactive: [1] 9.29 µM | [2] 11 µM | [3] 11.5 µM | [4] 2.31 µM | [5] 4.4 µM | [8] 11.6 µM | [9] 5.37 µM | [10] 3.89 µM | [11] 9.66 µM | [12] 13.6 µM | [13] 1.87 µM | [14] 1.32 µM | [15] 4.57 µM | [16] 11.5 µM | [17] 3.83 µM | [18] 2.94 µM | [19] 3.66 µM | [20] 4.33 µM

O=C(NC(=O)c1c(Cl)nc2sccn12)Nc1ccc(Cl)cc1
inactive: [1] 35.4 µM | [2] 49.3 µM | [3] 28.4 µM | [4] > 83.4 µM | [5] 54.1 µM | [7] > 100 µM | [8] 19.5 µM | [9] > 100 µM | [10] 25.5 µM | [11] > 100 µM | [12] > 100 µM | [13] 33.5 µM | [14] 61 µM | [15] 71.4 µM | [16] > 100 µM | [17] 52.6 µM | [18] 59.3 µM | [19] 24.8 µM | [20] > 100 µM
> 96.4 µM: [6]
